Results as given in patent US20260138959A1, “QUINAZOLINE DERIVATIVE COMPOUND AND USE THEREOF” (VORONOI INC., priority 2021, published 2026).

Legend:
[1] = test system: Ba/F3-c-KIT(D816V); assay: Proliferation inhibitory activity on Ba/F3 cell (CellTiter-Glo, 72 hours), c-KIT(D816V); assay type: cell-based; details: Mus musculus, BaF3, read-out: Ba/F3 (nM) c-KIT (D816V) (GI50 class)
Outline: (§1)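 GI50 here reflects 72 h growth inhibition of engineered Ba/F3 lines dependent on PDGFRα, PDGFRβ or c-KIT mutants (D816V, V560G/D816V, D814Y). Compounds spanned 0.00005-10 μM final; CellTiter-Glo read-out.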

[2] = target: c-KIT D816V (Homo sapiens, UniProt P10721, D816V); assay: Enzyme inhibitory activity, ADP-Glo kinase assay, c-KIT(D816V); assay type: biochemical; design: purchased Signalchem C06-12LG; details: read-out: c-KIT (D816V) (IC50 class)
Experimental: (§2) In order to evaluate the inhibitory activity of the compounds synthesized according to the above examples on PDGFR-α(wt), PDGFR-β(wt), c-KIT(wt), and c-KIT(D816V) kinases, the following method was performed. The compounds of examples were reacted with purified human PDGFR-α(wt) (Signalchem #P12-18G) enzyme, human PDGFR-β(wt) (Signalchem #P13-11G) enzyme, human c-KIT(wt) (Signalchem #K06-11BG) enzyme, human c-KIT(D816V) (Signalchem #C06-12LG) enzyme, and the enzyme inhibitory abilities were evaluated by the following method.
(§3) The reaction buffer was used as a composition of 40 mM Tris-HCl pH7.4, 20 mM MgCl2, 0.5 mg/ml BSA, 50 μM DTT, and the reactions of all the tests were carried out on the reaction buffer. The compound was diluted in 12 steps using a serial dilution method from a 10 mM DMSO stock, and the enzyme activity was measured at a final compound concentration of 10˜0.00005645 μM. During the test, the enzyme activity was confirmed using in vitro ADP-Glo™ kinase assay (Promega) after reacting with the proper concentration of human PDGFR-α(wt) enzyme, human PDGFR-β(wt), human c-KIT(wt) enzyme, and human c-KIT(D816V) enzyme with purified ATP and enzyme substrate at 25° C. for 1˜2 hours. At a ratio of 2:2:1, an enzyme-active reaction solution, an ADP-Glo reaction solution, and an enzyme-active detection solution were reacted to measure the inhibition of the enzyme's activity with luminoscence. Based on the […] of the enzyme activity of the solvent control that was not treated with the compound, the degree of enzyme activity inhibition was calculated according to the treatment concentration of each compound, and the concentration of each compound that inhibits 50% of enzyme activity was determined as IC50 (nM) value and the value was obtained by using GraphPad Prism 8.3.0 (GraphPad software Inc., San Diego) software. (A: IC50≤50 nM; B: 50 nM<IC50≤100 nM; C: 100 nM<IC50≤500 nM; D: IC50>500 nM).

[3] = test system: c-KIT D814Y; assay: Proliferation inhibitory activity on Ba/F3 cell (CellTiter-Glo, 72 hours), c-KIT D814Y; assay type: cell-based; details: Mus musculus, BaF3, c-KIT D814Y cells, read-out: Cell (nM) c-KIT D814Y (GI50 class)
Experimental: (§4) Ba/F3-TEL-PDGFRα(WT), Ba/F3-TEL-PDGFβ(WT), Ba/F3-c-KIT(D816V) (Kyinno, #KC-0138), c-KIT V560G/D816V, c-KIT D814Y were seeded at 3×10^3/100 μl/well in a clear bottom white 96-well plate. A culture solution containing compounds of 12 concentrations (0.00001-2 mM) serially diluted in 3 folds and the DMSO control group was added at 0.5 μl/well each to a final concentration of 0.00005-10 μM, and then incubated in a CO2 incubator at 37° C. for 72 hours. After 72 hours, the plate treated with the compound was taken out, CellTiter-Glo® Assay (Promega) solution was treated with 100 μl/well, followed by mixing well. After mixing well for about 10 minutes at room temperature, […] was measured using a microplate reader. The data were presented as percentages in proportion to treated cells based on the vehicle, GI50 (nM) values were calculated using GraphPad Prism 8.3.0 (GraphPad software Inc., San Diego).
(§5) The inhibitory activities of Ba/F3 expressing PDGFR-α, PDGFR-β, c-KIT(D816V), c-KIT V560G/D816V, and c-KIT D814Y measured as described above were measured and shown in Table 7 below (A: GI50≤200 nM; B: 200 nM<GI50≤500 nM; C: GI50>500 nM).

[4] = target: T1, human c-KIT(wt) (Homo sapiens, UniProt P10721); assay: Enzyme inhibitory activity, ADP-Glo kinase assay, c-KIT(wt); assay type: biochemical; details: read-out: c-KIT (WT) (IC50 class)
T1 construct: purchased Signalchem K06-11BG
Experimental: as §2, §3

[5] = target: T2, human PDGFR-β(wt) (Homo sapiens, UniProt P09619); assay: Enzyme inhibitory activity, ADP-Glo kinase assay, PDGFR-β(wt); assay type: biochemical; details: read-out: PDGFR-β (IC50 class)
T2 construct: purchased Signalchem P13-11G
Outline: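 Purified human kinases incubated with ATP and substrate 1–2 h at 25 °C in 40 mM Tris-HCl pH 7.4, 20 mM MgCl2, BSA, DTT, compound over 12 concentrations (10–0.00005645 μM final). ADP formed quantified by ADP-Glo luminescence; IC50 from inhibition versus DMSO control, reported in bins A–D.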

[6] = test system: Ba/F3-TEL-PDGFRα(WT); assay: Proliferation inhibitory activity on Ba/F3 cell (CellTiter-Glo, 72 hours), PDGFR-α; assay type: cell-based; details: Mus musculus, BaF3, read-out: Ba/F3 (nM) Tel-PDGFRα (GI50 class)
Experimental: as §4, §5

[7] = test system: c-KIT V560G/D816V; assay: Proliferation inhibitory activity on Ba/F3 cell (CellTiter-Glo, 72 hours), c-KIT V560G/D816V; assay type: cell-based; details: Mus musculus, BaF3, c-KIT V560G/D816V cells, read-out: Cell (nM) c-KIT V560G/D816V (GI50 class)
Outline: as §1

[8] = target: T3, human PDGFR-α(wt) (Homo sapiens, UniProt P16234); assay: Enzyme inhibitory activity, ADP-Glo kinase assay, PDGFR-α(wt); assay type: biochemical; details: read-out: PDGFR-α (IC50 class)
T3 construct: purchased Signalchem P12-18G
Experimental: as §2, §3

[9] = test system: Ba/F3-TEL-PDGFβ(WT); assay: Proliferation inhibitory activity on Ba/F3 cell (CellTiter-Glo, 72 hours), PDGFR-β; assay type: cell-based; details: Mus musculus, BaF3, read-out: Ba/F3 (nM) Tel-PDGFRβ (GI50 class)
Outline: as §1

T3 sequence (P16234 24-1089): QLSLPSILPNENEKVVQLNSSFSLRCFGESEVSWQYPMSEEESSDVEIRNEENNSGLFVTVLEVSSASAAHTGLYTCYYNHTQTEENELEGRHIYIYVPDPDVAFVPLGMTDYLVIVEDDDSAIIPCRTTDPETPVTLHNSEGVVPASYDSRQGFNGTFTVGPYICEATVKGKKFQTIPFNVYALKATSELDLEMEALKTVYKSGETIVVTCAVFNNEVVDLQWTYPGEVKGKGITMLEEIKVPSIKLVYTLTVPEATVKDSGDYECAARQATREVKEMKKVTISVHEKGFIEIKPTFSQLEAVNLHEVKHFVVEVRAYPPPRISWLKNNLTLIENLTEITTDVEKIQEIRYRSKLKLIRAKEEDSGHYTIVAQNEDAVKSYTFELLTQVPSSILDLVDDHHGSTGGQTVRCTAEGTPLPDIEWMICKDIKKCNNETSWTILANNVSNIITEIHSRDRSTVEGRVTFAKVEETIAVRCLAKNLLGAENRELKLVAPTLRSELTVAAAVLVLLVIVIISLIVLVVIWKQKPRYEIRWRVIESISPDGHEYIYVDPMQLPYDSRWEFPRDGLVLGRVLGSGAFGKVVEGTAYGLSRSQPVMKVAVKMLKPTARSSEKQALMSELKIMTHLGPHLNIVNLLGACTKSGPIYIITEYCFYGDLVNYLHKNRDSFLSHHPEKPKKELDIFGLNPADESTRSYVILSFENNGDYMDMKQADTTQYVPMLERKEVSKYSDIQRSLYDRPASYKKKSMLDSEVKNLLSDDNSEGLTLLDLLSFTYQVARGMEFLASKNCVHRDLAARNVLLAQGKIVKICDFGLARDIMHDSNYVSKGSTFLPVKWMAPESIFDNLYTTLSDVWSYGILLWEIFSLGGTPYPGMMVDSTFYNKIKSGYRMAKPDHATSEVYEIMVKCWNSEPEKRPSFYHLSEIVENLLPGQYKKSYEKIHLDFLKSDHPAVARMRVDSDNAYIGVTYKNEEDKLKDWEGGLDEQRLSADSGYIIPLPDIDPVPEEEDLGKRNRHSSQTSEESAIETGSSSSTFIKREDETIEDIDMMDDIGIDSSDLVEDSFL
Chain of c-KIT D816V (P10721 26-976 D816V): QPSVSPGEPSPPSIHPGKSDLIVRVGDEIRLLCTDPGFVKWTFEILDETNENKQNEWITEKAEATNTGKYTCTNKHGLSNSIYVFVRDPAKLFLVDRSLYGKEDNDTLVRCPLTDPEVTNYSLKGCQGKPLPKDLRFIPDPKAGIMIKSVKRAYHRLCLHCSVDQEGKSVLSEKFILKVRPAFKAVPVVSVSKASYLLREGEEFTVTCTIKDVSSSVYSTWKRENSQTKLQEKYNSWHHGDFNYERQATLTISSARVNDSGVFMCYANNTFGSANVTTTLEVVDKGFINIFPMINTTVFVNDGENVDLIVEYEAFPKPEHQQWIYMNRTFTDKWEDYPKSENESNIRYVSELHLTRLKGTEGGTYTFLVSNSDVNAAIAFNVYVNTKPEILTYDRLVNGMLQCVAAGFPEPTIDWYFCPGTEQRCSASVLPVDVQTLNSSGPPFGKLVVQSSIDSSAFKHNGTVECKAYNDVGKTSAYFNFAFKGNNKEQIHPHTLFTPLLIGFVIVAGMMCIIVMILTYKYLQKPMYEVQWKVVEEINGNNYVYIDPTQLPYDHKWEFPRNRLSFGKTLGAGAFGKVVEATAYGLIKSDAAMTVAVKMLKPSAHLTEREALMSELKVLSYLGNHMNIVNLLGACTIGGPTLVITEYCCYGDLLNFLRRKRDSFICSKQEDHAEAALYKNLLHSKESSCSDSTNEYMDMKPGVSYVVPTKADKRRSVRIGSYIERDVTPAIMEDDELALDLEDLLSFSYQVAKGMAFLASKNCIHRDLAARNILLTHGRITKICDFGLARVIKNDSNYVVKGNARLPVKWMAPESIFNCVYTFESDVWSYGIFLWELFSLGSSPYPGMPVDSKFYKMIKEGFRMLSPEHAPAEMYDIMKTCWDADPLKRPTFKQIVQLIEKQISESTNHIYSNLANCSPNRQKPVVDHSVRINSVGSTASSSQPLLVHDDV
T1 sequence (P10721 26-976): as the sequence (P10721 26-976 D816V) above, with V791D counted along it
T2 sequence (P09619 33-1106): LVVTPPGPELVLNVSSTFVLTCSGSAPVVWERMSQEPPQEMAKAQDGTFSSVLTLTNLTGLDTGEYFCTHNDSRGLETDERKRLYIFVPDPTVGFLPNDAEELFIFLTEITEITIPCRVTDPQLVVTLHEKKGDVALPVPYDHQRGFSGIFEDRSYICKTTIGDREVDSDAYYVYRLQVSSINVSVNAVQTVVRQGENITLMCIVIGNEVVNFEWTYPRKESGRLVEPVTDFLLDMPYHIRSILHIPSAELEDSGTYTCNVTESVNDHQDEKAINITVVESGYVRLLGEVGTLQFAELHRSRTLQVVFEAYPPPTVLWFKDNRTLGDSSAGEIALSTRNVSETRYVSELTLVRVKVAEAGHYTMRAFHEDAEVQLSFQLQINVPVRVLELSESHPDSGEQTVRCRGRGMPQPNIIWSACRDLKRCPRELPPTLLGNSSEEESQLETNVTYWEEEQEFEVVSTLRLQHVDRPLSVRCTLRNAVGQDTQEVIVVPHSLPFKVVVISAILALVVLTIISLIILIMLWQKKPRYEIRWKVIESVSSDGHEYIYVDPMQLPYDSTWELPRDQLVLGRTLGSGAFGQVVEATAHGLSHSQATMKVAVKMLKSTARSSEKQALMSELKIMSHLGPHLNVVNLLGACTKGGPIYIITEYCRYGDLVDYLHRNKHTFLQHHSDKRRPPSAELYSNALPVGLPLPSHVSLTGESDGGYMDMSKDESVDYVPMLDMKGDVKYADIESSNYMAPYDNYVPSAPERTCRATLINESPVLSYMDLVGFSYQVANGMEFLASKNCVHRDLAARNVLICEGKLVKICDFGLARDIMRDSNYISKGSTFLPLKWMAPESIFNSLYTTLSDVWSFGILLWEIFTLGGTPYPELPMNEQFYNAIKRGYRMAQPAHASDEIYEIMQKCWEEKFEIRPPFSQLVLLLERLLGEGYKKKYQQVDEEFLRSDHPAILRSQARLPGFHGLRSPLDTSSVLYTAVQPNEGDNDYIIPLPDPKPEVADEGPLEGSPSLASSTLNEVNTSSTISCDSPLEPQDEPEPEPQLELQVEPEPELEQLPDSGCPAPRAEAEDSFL

| Structure (SMILES) | GI50 [1] | IC50 [2] | GI50 [3] | IC50 [4] | IC50 [5] | GI50 [6] | GI50 [7] | IC50 [8] | GI50 [9] |
| --- | --- | --- | --- | --- | --- | --- | --- | --- | --- |
| CCN(CC)CCCOc1cc2ncnc(-c3ccc(NC(=O)Cc4ccc(C(F)(F)F)cc4)cc3)c2cc1OC [Example 11, N-(4-(7-(3-(diethylamino)propoxy)-6-methoxyquinazolin-4-yl)phenyl)-2-(4-(trifluoromethyl)phenyl)acetamide] | ≤ 200 nM | ≤ 50 nM | ≤ 200 nM | ≤ 50 nM | ≤ 50 nM | ≤ 200 nM | ≤ 200 nM | ≤ 50 nM | ≤ 200 nM |
| CCN1CC[C@@H](COc2cc3ncnc(-c4ccc(NC(=O)Cc5ccc(C(F)(F)F)cc5)cc4)c3cc2OC)C1 [Example 40, (R)-N-(4-(7-((1-ethylpyrrolidin-3-yl)methoxy)-6-methoxyquinazolin-4-yl)phenyl)-2-(4-(trifluoromethyl)phenyl)acetamide] | ≤ 200 nM |  | ≤ 200 nM |  | ≤ 50 nM |  | ≤ 200 nM |  |  |
| CCN1CCCC(COc2cc3ncnc(-c4ccc(NC(=O)Cc5ccc(C(F)(F)F)cc5)cc4)c3cc2OC)C1 (centres unmarked) [Example 18, N-(4-(7-((1-ethylpiperidin-3-yl)methoxy)-6-methoxyquinazolin-4-yl)phenyl)-2-(4-(trifluoromethyl)phenyl)acetamide] | ≤ 200 nM |  | ≤ 200 nM |  |  |  | ≤ 200 nM |  | ≤ 200 nM |
| COCCN1CCC(COc2cc3ncnc(-c4ccc(NC(=O)Cc5ccc(C(F)(F)F)cc5)cc4)c3cc2OC)CC1 [Example 43, N-(4-(6-methoxy-7-((1-(2-methoxyethyl)piperidin-4-yl)methoxy)quinazolin-4-yl)phenyl)-2-(4-(trifluoromethyl)phenyl)acetamide] | ≤ 200 nM |  | ≤ 200 nM |  | ≤ 50 nM |  | ≤ 200 nM |  |  |
| COCCOc1cc2ncnc(-c3ccc(NC(=O)Cc4ccc(C(F)(F)F)cc4)cc3)c2cc1OCCOC [Example 57, N-(4-(6,7-bis(2-methoxyethoxy)quinazolin-4-yl)phenyl)-2-(4-(trifluoromethyl)phenyl)acetamide] |  | ≤ 50 nM |  | ≤ 50 nM | ≤ 50 nM | ≤ 200 nM | ≤ 200 nM | ≤ 50 nM | ≤ 200 nM |
| COc1cc2c(-c3ccc(NC(=O)Cc4ccc(C(F)(F)F)cc4)cc3)ncnc2cc1OCCCN1C[C@H]2C[C@@H]1CN2C [Example 31, N-(4-(6-methoxy-7-(3-((1R,4R)-5-methyl-2,5-diazabicyclo[2.2.1]heptane-2-yl)propoxy)quinazolin-4-yl)phenyl)-2-(4-(trifluoromethyl)phenyl)acetamide] | ≤ 200 nM |  | ≤ 200 nM |  | ≤ 50 nM |  | ≤ 200 nM |  |  |
| CCN(CC)CCOc1cc2ncnc(-c3ccc(NC(=O)Cc4ccc(C(F)(F)F)cc4)cc3)c2cc1OC [Example 1, N-(4-(7-(2-(diethylamino)ethoxy)-6-methoxyquinazolin-4-yl)phenyl)-2-(4-(trifluoromethyl)phenyl)acetamide] | ≤ 200 nM | ≤ 50 nM |  | ≤ 50 nM | ≤ 50 nM | ≤ 200 nM | ≤ 200 nM | ≤ 50 nM | ≤ 200 nM |
| COc1cc2c(-c3ccc(NC(=O)Cc4ccc(C(F)(F)F)cc4)cc3)ncnc2cc1OCCn1cccn1 [Example 30, N-(4-(7-(2-(1H-pyrazol-1-yl)ethoxy)-6-methoxyquinazolin-4-yl)phenyl)-2-(4-(trifluoromethyl)phenyl)acetamide] | ≤ 200 nM |  | ≤ 200 nM |  | ≤ 50 nM |  | ≤ 200 nM |  |  |
| CCN(CC)CCOc1cc2c(-c3ccc(NC(=O)Cc4ccc(F)cc4)cc3)ncnc2cc1OC [Example 122, N-(4-(6-(2-(diethylamino)ethoxy)-7-methoxyquinazolin-4-yl)phenyl)-2-(4-fluorophenyl)acetamide] |  | ≤ 50 nM |  | ≤ 50 nM | 50 to 100 nM | ≤ 200 nM |  | ≤ 50 nM | ≤ 200 nM |

Results, then the compound that gave them:

| GI50 [1] | IC50 [2] | GI50 [3] | IC50 [4] | IC50 [5] | GI50 [6] | GI50 [7] | IC50 [8] | GI50 [9] | Structure (SMILES) |
| --- | --- | --- | --- | --- | --- | --- | --- | --- | --- |
| ≤ 200 nM |  | > 500 nM |  | ≤ 50 nM | ≤ 200 nM | > 500 nM | ≤ 50 nM | ≤ 200 nM | COc1cc2ncnc(-c3ccc(NC(=O)Cc4ccc(C(F)(F)F)cc4)cc3)c2cc1OC1CCNCC1 [Example 140, N-(4-(7-methoxy-6-(piperidin-4-yloxy)quinazolin-4-yl)phenyl)-2-(4-(trifluoromethyl)phenyl)acetamide] |
| ≤ 200 nM | ≤ 50 nM |  | ≤ 50 nM | ≤ 50 nM | ≤ 200 nM | 200 to 500 nM | ≤ 50 nM | ≤ 200 nM | COc1cc2c(-c3ccc(NC(=O)Cc4ccc(C(F)(F)F)cc4)cc3)ncnc2cc1OC1CCN(C)CC1 [Example 2, N-(4-(6-methoxy-7-((1-methylpiperidin-4-yl)oxy)quinazolin-4-yl)phenyl)-2-(4-(trifluoromethyl)phenyl)acetamide] |
| ≤ 200 nM |  | 200 to 500 nM |  | ≤ 50 nM |  | 200 to 500 nM |  |  | COc1cc2ncnc(-c3ccc(NC(=O)Cc4ccc(C(F)(F)F)cc4)cc3)c2cc1OCCN1CCN(C)CC1 [Example 131, N-(4-(7-methoxy-6-(2-(4-methylpiperazin-1-yl)ethoxy)quinazolin-4-yl)phenyl)-2-(4-(trifluoromethyl)phenyl)acetamide] |
| ≤ 200 nM |  | ≤ 200 nM |  | ≤ 50 nM |  | ≤ 200 nM |  | ≤ 200 nM | CCN1CCC(COc2cc3ncnc(-c4ccc(NC(=O)Cc5ccc(C(F)(F)F)cc5)cc4)c3cc2OC)CC1 [Example 4, N-(4-(7-((1-ethylpiperidin-4-yl)methoxy)-6-methoxyquinazolin-4-yl)phenyl)-2-(4-(trifluoromethyl)phenyl)acetamide] |
